Assay [1] has as its target T1, Polyunsaturated fatty acid 5-lipoxygenase (Mus musculus, UniProt P48999).
T1 sequence (P48999 whole entry): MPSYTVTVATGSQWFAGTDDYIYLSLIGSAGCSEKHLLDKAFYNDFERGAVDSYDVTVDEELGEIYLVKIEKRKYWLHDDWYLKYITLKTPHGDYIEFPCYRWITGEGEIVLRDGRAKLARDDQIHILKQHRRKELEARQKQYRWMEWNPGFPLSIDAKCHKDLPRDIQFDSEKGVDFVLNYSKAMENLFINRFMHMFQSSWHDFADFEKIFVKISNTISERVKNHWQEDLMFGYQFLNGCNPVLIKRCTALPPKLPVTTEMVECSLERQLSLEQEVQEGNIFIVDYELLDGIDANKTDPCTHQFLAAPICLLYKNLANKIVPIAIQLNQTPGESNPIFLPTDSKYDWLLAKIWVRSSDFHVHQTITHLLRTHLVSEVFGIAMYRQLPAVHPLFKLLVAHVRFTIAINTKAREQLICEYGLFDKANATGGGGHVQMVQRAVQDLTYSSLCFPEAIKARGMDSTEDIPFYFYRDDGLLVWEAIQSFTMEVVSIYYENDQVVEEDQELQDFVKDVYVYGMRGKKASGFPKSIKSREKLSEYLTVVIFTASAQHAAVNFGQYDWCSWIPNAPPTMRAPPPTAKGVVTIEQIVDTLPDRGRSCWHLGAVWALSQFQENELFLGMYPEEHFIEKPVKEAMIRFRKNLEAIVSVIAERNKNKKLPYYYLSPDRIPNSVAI
As to the kind of experiment: The compound was tested for inhibitory activity against 5-lipoxygenase in mouse macrophages.

For a further assay, the target named is T2, Cyclooxygenase (Rattus norvegicus, UniProt P35355+Q63921).
T2 sequence (P35355 whole entry): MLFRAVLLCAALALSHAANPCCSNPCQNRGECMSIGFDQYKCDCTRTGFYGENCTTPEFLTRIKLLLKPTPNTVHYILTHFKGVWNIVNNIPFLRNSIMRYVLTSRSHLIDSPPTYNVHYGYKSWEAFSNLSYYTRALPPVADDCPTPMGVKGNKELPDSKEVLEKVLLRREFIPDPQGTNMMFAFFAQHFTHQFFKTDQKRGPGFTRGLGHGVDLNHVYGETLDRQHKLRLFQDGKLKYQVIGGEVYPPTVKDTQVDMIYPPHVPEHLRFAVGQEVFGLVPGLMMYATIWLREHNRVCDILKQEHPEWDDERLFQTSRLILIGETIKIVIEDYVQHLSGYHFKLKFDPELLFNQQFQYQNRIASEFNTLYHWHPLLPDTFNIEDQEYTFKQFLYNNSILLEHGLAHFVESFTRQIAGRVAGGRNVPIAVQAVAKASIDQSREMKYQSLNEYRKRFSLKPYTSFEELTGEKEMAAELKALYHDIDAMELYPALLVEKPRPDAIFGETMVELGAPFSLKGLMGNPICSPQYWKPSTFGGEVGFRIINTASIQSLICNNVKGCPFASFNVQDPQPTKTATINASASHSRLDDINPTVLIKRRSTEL
T2 sequence (Q63921 whole entry): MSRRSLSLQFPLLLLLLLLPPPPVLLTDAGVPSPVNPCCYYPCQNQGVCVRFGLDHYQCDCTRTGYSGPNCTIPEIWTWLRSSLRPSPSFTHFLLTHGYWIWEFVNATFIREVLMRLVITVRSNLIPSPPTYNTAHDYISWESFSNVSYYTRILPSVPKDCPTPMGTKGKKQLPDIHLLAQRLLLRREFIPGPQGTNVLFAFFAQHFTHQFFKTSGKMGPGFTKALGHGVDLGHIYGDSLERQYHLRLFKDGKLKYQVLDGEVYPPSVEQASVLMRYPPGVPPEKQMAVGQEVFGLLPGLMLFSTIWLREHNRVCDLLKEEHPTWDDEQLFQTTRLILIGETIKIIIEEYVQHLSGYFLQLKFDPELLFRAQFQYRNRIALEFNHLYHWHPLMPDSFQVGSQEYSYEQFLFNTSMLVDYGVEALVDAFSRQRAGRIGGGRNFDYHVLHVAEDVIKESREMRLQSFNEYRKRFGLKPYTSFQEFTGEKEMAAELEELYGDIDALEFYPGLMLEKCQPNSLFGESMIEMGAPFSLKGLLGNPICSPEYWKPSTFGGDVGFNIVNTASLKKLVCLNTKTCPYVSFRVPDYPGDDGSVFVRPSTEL
As to the kind of experiment: The compound was tested for inhibitory activity against cyclooxygenase in rat polymorphonuclear leukocytes[PMNS]. Type of assay: cell-based.

A word on the IC50: it is the concentration needed to halve the response being measured. For the compound `c1ccc2nc(COc3cccc4ccccc34)ccc2c1`, the IC50 in assay [1] came to 200 nM; at Cyclooxygenase it was 6.3 µM.

Source of the values: ChEMBL document CHEMBL1125472, “5-lipoxygenase: properties, pharmacology, and the quinolinyl(bridged)aryl class of inhibitors” (J Med Chem, 1992).
